Reference: patent US9902713B2, “Neuroprotective compounds and use thereof” (BOARD OF REGENTS OF THE UNIVERSITY OF TEXAS SYSTEM, priority 2013, dated 2018)

How the values were obtained:
blast-injured mice = experiment: Foot slip assay after blast-injury; type: in vivo; details: 28 days after injury, daily oral 6 mg/kg/day from 24 hours
From the text: Because the cerebellum controls coordination, we next assayed their balance and coordination, using standard procedures (Luong et al., 2011). Mice were trained to cross an 80 cm long beam over 2 days, and then sham or blast-injured on day 3. […] Mice were videotaped during the test, and then analyzed for the number of foot slips by observers blind to treatment group. […] Thus, protective efficacy for cerebellar axonal degeneration after injury by (−)-P7C3-S243 correlated with preservation of motor coordination.
Foot slip assay. We used standard procedures described by Luong et al. (2011) to measure motor balance coordination. During the training period, mice were trained to cross the 80 cm beam to enter a black box with nesting material 3 times a day over 2 consecutive days. Mice were then sham-or blast-Injured on the next day. 24 hrs after injury, daily administration with (−)-P7C3-S243 or vehicle was initiated. Animals were then tested 7 and 28 days after injury. Mice performance was videotaped during the test and foot slips were analyzed by an observer blind to condition and treatment group.

HCC44 = experiment: Toxicity towards human cancer cell line; type: cell-based
[1] = tested on: 47 neuronal receptors and channels; experiment: NIH Psychoactive Drug Screening Program panel; type: binding
μ-opioid receptor = μ-opioid receptor (Homo sapiens, UniProt P35372); experiment: Ligand displacement (Psychoactive Drug Screening Program); type: binding
in vivo = details: mouse; for Kp: brain and plasma

μ-opioid receptor, sequence (P35372 whole entry, species assumed): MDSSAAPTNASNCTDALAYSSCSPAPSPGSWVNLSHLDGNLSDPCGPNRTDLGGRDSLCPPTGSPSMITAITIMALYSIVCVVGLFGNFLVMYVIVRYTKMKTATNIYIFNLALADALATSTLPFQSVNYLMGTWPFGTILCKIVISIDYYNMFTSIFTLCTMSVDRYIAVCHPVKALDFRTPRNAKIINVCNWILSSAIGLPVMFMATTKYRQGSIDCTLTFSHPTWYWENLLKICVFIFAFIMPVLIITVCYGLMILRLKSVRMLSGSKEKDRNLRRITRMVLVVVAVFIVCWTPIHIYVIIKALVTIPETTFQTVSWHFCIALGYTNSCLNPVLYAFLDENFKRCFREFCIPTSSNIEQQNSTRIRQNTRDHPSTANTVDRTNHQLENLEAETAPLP

| SMILES | increase in number of foot slips (blast-injured mice) | IC50 (HCC44) [µM] | binding partners among 47 neuronal receptors and channels [1] | IC50 (μ-opioid receptor) [µM] | Kp (in vivo; ip, 10 mg/kg) | Kp (in vivo; ip, 20 mg/kg) | Kp (in vivo; iv, 10 mg/kg) | Kp (in vivo; po, 20 mg/kg) | bioavailability (in vivo; brain, po, 20 mg/kg) [%] | bioavailability (in vivo; plasma, ip, 20 mg/kg) [%] | bioavailability (in vivo; plasma, po, 20 mg/kg) [%] |
| --- | --- | --- | --- | --- | --- | --- | --- | --- | --- | --- | --- |
| COc1cccc(NCC(F)Cn2c3ccc(Br)cc3c3cc(Br)ccc32)n1 (single isomer, unassigned; (-)) [(−)-P7C3-S243, (−)-N-(3-(3,6-dibromo-9H-carbazol-9-yl)-2-fluoropropyl)-6-methoxypyridin-2-amine] | normalized | > 10 | no compelling binding partners were identified | 8.2 |  |  |  |  |  |  |  |
| COc1cccc(NCC(F)Cn2c3ccc(Br)cc3c3cc(Br)ccc32)n1 (racemic) [P7C3-S243, N-(3-(3,6-dibromo-9H-carbazol-9-yl)-2-fluoropropyl)-6-methoxypyridin-2-amine] |  |  |  |  | 0.45 | 0.28 | 1.1 | 0.81 | 58 | 90 | 38 |
